From PMC8110578, “Phenylethynylbenzyl-modified biguanides inhibit pancreatic cancer tumor growth” (Scientific Reports, 2021)
Like-named read-outs stand apart in the source and are kept apart here.

Experiments:
[1] = system: KP4 cells; assay: Growth assay (crystal violet), KP4 cells; format: cell-based, human; conditions: KP4 cells, 3 days treatment, crystal violet retention assay, read-out: IC50 KP4
Procedure: (§1) All chemicals were purchased from Aldrich Chemicals in their highest purity and used without further purification. Deuterated dimethylsulfoxide (DMSO-d^6) and deuterated chloroform (CDCl3) were purchased from CDN Isotopes. NMR spectra were recorded on Bruker advance 400 and 100 spectrometers. Coupling constants are given in hertz (Hz) and chemical shifts are given in parts per million (ppm, δ) measured relative to the residual solvent (the multiplicity of the signals are given as s: singlet, d: doublet, t: triplet, and m: multiplet). High-resolution mass spectra (HRMS) were recorded on a TSQ Quantum Ultra (Thermo Scientific) triple quadrupole with accurate mass option instrument (Université de Montréal Mass Spectrometry Facility). MS experiences were performed using an UltrafleXtreme MALDI TOF/TOF mass spectrometer equipped with a SmartBeam II Nd:Yag/355 nm laser operating at 1 kHz and providing a laser focus down to 20 μm in diameter (Bruker Daltonics, Billerica, MA). The data acquisition for MS was performed in positive ion mode using the linear geometry with flexControl 3.4 (Bruker Daltonics, Billerica, MA). Acceleration voltage was set to + 25 kV and all other instrumental parameters (delayed extraction parameters, source voltages, detector gain, laser energy, etc.) were optimized for maximum S/N for the drug compounds. L-α-Phosphatidylcholine was purchased from Avanti Polar Lipids. Transport and depolarization studies as well as absorbance measurements were performed on a Varian Cary Eclipse fluorescence spectrophotometer. The hemolysis assays were performed on a Fluostar Optima plate reader. Single crystals of C18H18F3N5O3S were obtained from chloroform. A suitable crystal was selected and analysed on a Bruker Venture Metaljet diffractometer. Crystal violet retention assay was used for cell growth assays and IC50 were determined using Prism (GraphPad). NAD/NADH quantitation colorimetric kit (#K337-100) from Biovision was used according to manufacturer’s instructions. ECAR (extracellular acidification rate) and OCR of KP4 cells (oxygen consumption rate) were measured on a Seahorse XF-24 (Agilent).
(§2) Experimental. KP4 (Riken RCB1005) and PSN1 (ATCC: CRM-CRL-3211), were cultured in Dulbecco's modified Eagle's medium (DMEM) (Wisent, St-Bruno, QC) supplemented with 10 % of fetal bovine serum (FBS) (Wisent). HPNE hTERT (ATCC: CRL1423) were cultured in a mix of 75% DMEM without glucose (Sigma Cat#. D-5030) with additional 2 mM L-glutamine and 1.5 g/L sodium bicarbonate, 25% Medium M3 Base (Incell Corp. Cat# M300F- 500), fetal bovine serum 5% (wisent 10 ng/ml human recombinant EGF (Sigma-Aldrich), 5.5 mM D-glucose (Sigma-Aldrich), 750 ng/ml puromycin (Sigma-Aldrich). For dose-response assays, cells were seeded in 96 well plates (company). After 24 h, treatments were applied and cells were grown for 3 more days. Crystal violet retention assay used for cell growth assays were described previously^2. The data is expressed as relative absorbance of crystal violet extracted from the cells and diluted in 10 % acetic acid. IC50 were determined using Prism (GraphPad). Tumor spheres were grew according to Ferbeyre et al^3.

[2] = system: HPNE cells (normal immortalized pancreatic epithelial cells); assay: Growth assay (crystal violet), HPNE cells; format: cell-based, human; conditions: 3 days treatment, crystal violet retention assay
Procedure: . The IC50 of most of the synthetic biguanides in HPNE cells was higher than for cancer cells (Supplementary Table S12).
as §1, §2

[3] = system: red blood cells; assay: Hemolytic activity of PEB-biguanidium salts; format: cell-based; conditions: red blood cells 2% v/v in PBS, 1 h at 37 °C
Procedure: The toxicity of PEB-Biguanidiums salts was estimated through their hemolytic activity by incubating red blood cells (RBC) with the compounds for 1 h (See Supplementary Table S13 and Supplementary Fig. S29).
Experimental. Red blood cells in Alsever’s solution were centrifuged for 10 min at 300g, washed 3 times with PBS buffer, and resuspended in PBS at 2% v/v. To each well of a 96-well plate, 195 µL of red blood cell solution and 5 µL of biguanidium salt in DMSO were added, and the plate was incubated with light agitation for 1 h at 37 °C. The plate was then centrifuged for 10 min at 300g, and 50 µL of the supernatant solution of each well was transferred to another plate. Absorbance was measured at λ = 405 nm. Each measurement was performed in triplicate in three different experiments.

[4] = system: red blood cells; design: method as in PMID 23143143, doi:10.1039/C3md00293d; conditions: cited from earlier work

Compound	IC50 [1]	IC50 [2]	HC 10% (µM) [3]	HC 10% (µg/ml) [3]	HC50 (concentration that kills 50% of red blood cells) [4]	IC50 ([1]; Homo sapiens, KP-4, 72 h)	IC50 ([2]; Homo sapiens, HPNE, 72 h)
N=C(N)NC(=N)NCc1ccc(CCc2ccccc2)cc1 [2b, 4-(phenylethyl)benzylbiguanide]	17.4 µM	31.3 µM	> 225 µM	> 100 µg/mL			
N=C(N)NC(=N)NCc1ccc(CCc2ccccc2)cc1 [2a, 4-(phenylethyl)benzylbiguanide]	20.7 µM	23.2 µM	> 173 µM	> 100 µg/mL			
C[n+]1cn(Cc2ccc(C#Cc3ccccc3)cc2)c2ccccc21 [A.3]					150 mM		
N=C(N)NC(=N)Nc1ccc(C#Cc2ccccc2)cc1 [3b, 4-(phenylethynylphenyl)biguanidium]	58.3 µM	60.4 µM	> 234 µM	> 100 µg/mL			
C(#Cc1ccc(Cn2c[n+](Cc3ccccc3)c3ccccc32)cc1)c1ccccc1 [A.2]					1 mM		
N=C(N)NC(=N)Nc1ccc(C#Cc2ccccc2)cc1 [3c, 4-(phenylethynylphenyl)biguanidium]	38.9 µM	52.6 µM	> 319 µM	> 100 µg/mL			
N=C(N)NC(=N)NCc1ccc(CCc2ccccc2)cc1 [2c, 4-(phenylethyl)benzylbiguanide]			151 µM	50 µg/mL		15.8 µM	37.4 µM
C(#Cc1ccc(Cn2c[n+](Cc3ccc(C#Cc4ccccc4)cc3)c3ccccc32)cc1)c1ccccc1 [A.1]					0.15 mM		
N=C(N)NC(=N)Nc1ccc(C#Cc2ccccc2)cc1 [3a, 4-(phenylethynylphenyl)biguanidium]	17 µM	20.2 µM	> 179 µM	> 100 µg/mL			
N=C(N)NC(=N)Nc1ccc(CCc2ccccc2)cc1 [4c, 4-(phenylethylphenyl)biguanidium]	16.9 µM		> 315 µM	> 100 µg/mL			
N=C(N)NC(=N)Nc1ccc(CCc2ccccc2)cc1 [4b, 4-(phenylethylphenyl)biguanidium]	13.9 µM	47.4 µM	> 232 µM	> 100 µg/mL			
N=C(N)NC(=N)NCc1ccc(C#Cc2ccccc2)cc1 [1c, 4-(phenylethynyl)benzylbiguanide]	9.21 µM	28.1 µM	> 305 µM	> 100 µg/mL			
N=C(N)NC(=N)Nc1ccc(CCc2ccccc2)cc1 [4a, 4-(phenylethylphenyl)biguanidium]			> 178 µM	> 100 µg/mL		12.2 µM	32.6 µM
